From US11541059B2, “Heterocyclic compounds and uses thereof” (Infinity Pharmaceuticals, Inc., priority 2014, dated 2023)

Tests used:
[1] = test system: LPS induced neutrophil influx in BALF; experiment: LPS-induced neutrophilia, oral administration; assay type: in vivo; conditions: rat, p.o., 4 hours post-LPS challenge
Source text: This study also includes assessment of the exposure to the compounds in plasma and lung tissues.

[2] = test system: GL-261 tumors; experiment: GL-261 glioma model with or without temozolomide; assay type: in vivo, mouse; conditions: 15 mg/kg QD PO from the start of treatment, vs vehicle
Description: TMZ was dosed IP 1×/day for 7 days.
Animals: C57 Albino mice (male) from Jackson Labs, n=80. Parameters Evaluated:
In life: Mice were dosed QD with Compound BB. Temozolomide was dosed QD IP, for 7 days. Tumor measurements and bodyweights were taken 2×/week, but caliper and xenogen measurements.
End point analysis: Tumors were cut in half. One half was cut in half again with ½ fixed in 10% NBF the other was frozen in OCT for frozen sections. The remaining half was processed to single cell suspension and evaluated by FACS.
PD satellite group—8 mice from the TMZ treated mice and 8 mice from the vehicle treated mice were sacrificed on day 7 post treatment. Tumors were processed to single cell suspension and evaluated by FACS.

[3] = test system: MC38 tumors; experiment: MC38 colon cancer model; assay type: in vivo, mouse
Description: In this model, a syngeneic colon cancer cell line is run subcutaneously. The experimental setup was as follows.
Female CR C57BL/6 mice were set up with 1×10^6 MC38 tumor cells in 0% Matrigel sc in flank. The cell injection volume was 0.05 ml per mouse. When tumors reached an average size of […], a pair match was made and treatment began. The tumor was measured by caliper biweekly.
The dosing volume was 5 mL/kg.
For all animals, blood was collected by terminal cardiac puncture under isoflurane anesthesia. The blood was processed for plasma. In addition, tumor samples were collected.
At study end, tumors were isolated, fixed in 10% neutral buffered formalin and embedded in paraffin for histologic analysis. Tumor sections from both vehicle and Compound BB monotherapy were cut for immunohistochemical analysis. T-cells within the tumor sections were identified utilizing a CD3-specific antibody via automated immunohistochemistry equipment (Ventana). Once stained, slides were digitalized via Aperio slide scanning equipment. Next, stained tumor sections were quantified via Definians software to assess the percentage of CD3 positive cells within each tumor. […] A trendline was added to the vehicle and Compound BB monotherapy graphs.

[4] = test system: human T cells; experiment: Concanavalin A-induced model for activation of human T cells (IFN-γ); assay type: cell-based; conditions: isoform selective concentrations
[5] = Stability in simulated gastric fluid; assay type: physicochemical
Source text: The phyiscochemical properties of Compound BB are drug-like, and suitable for use of the compound as a drug.

[6] = test system: LLC tumor; experiment: Lewis Lung Carcinoma (LLC tumor brei) model; assay type: in vivo, mouse; conditions: FIG. 25A, 25B
Description: Compound BB was tested in the Lewis Lung Carcinoma model, which is known in the art and briefly described hereinabove.
LLC tumor brei model was prepared and injected subcutaneously into a mouse in the hind flank region. The tumor brei was prepared as follows. LL2-Luc tumor cells were grown in culture in DMEM+10% FBS. Cells were implanted @ 1×10^6 cells/100 uL SC in the flank of C57 Albino mice (male) When tumors reached 1000 mm3, tumors were harvested. Only the white, living tissue was harvested. Any material containing visable blood or necrotic area was isolated away from the tumor tissue. Tumor tissue was placed in a Dounce tissue homoginized with 5 mLs of warm DMEM (no FBS). About 1-2 grams of tumor tissue was collected, homogenized, pooled into 50 mL falcon tube, and cells were counted. Cells were spinned @ […], and FBS was pooled off Cells were resuspended to equal 1×10^7 cells/mL with sterile PBS. 100 uL of cells/mouse SC at the hind flank region were implanted. This process was repeated one more time before conducting brei tumor efficacy study.

[7] = test system: spleen T cell proliferation; experiment: Ex vivo T-cell proliferation assay with tumor-derived cells; assay type: cell-based, mouse
[8] = test system: GL261-Luc tumors; experiment: GL261-Luc murine glioblastoma subcutaneous model; assay type: in vivo, mouse; conditions: 15 mg/kg QD, PO, FIG. 47A
[9] = test system: collagen induced arthritis; experiment: Rat collagen induced arthritis (CIA) model; conditions: FIG. 1
[10] = test system: Cyps; experiment: Time dependent Cyp inhibition; assay type: in vitro ADME
[11] = Pharmacokinetics of Compound BB, single and repeat oral dose; assay type: in vivo, mouse; conditions: female CB6F1 mice, 2, 7.5, 15 mg/kg PO
Description: Animals were weighed daily prior to dosing. […] On subsequent dosing days, the animals' condition was noted prior to dosing; the animals were observed within 4 hours of dosing, and at the end of the day.
Samples were collected at pre-dose 0.25, 0.5, 1, 2, 4, 6 and 24 h following the first dose on day 1 and pre-dose (trough), 0.25, 0.5, 1, 2, 4, 6 and 24 h following the final dose on day 3. Animals received a single oral dose daily for 3 consecutive days. Blood was collected by retro-orbital bleeding for all time points on day 1. All other blood sampling was collected by a cardiac puncture. Blood was collected into K2EDTA tubes and placed on wet ice. Within 15 min of collection, the sample was centrifuged at 10,000 rpm at 4° C. for 10 min in a bench top centrifuge and the plasma transferred to a new microcentrifuge tube.

[12] = Oral half-life; assay type: in vivo; conditions: plasma
Source text: Compound BB's oral exposure is high in rat, dog and monkey. Good oral bioavailability and low clearance in rodent and non-rodent animal species results in high oral exposure.

C[C@H](NC(=O)c1c(N)nn2cccnc12)c1cc2cccc(C#Cc3cnn(C)c3)c2c(=O)n1-c1ccccc1 [Compound BB]
Neutrophil in bronchoalveolar lavage fluid (BALF) [1]: reduced neutrophil
Tumor volume, GL-261 glioma model [2]: significant reduction in tumor volume
Intratumoral CD3+ T cells ([3]; MC38 tumors vs vehicle, FIG. 30): significantly more intratumoral CD3+ T cells
Tumor growth, MC38 colon cancer model ([3]; monotherapy, FIG. 29A): significantly inhibited tumor growth
effect on IFN-γ [4]: little to no effect
Stability in 38° simulated gastric fluid [5]: > 4 h
Tumor growth, Lewis Lung Carcinoma model [6]: demonstrated single agent activity
immune suppressive environment [7]: reduces
Tumor volume, GL-261 syngeneic glioma model [8]: reduced tumor volume
Mean ankle diameter, day 9 to day 17 [9]: has therapeutic effects
Time dep Cyp Inhibition @ 10 uM [10]: Neg
Stability in serum (24-hour unbound plasma concentration time course) [11]: good stability in serum
half-life ([12]; dog, 5 mg/kg): ~7.1 h
half-life ([12]; monkey, 5 mg/kg): ~10.2 h
half-life ([12]; rat, 7.5 mg/kg): ~3.3 h
